For assay [1], the target named is human recombinant GABA A receptor containing the alpha2, beta2, and gamma3 subunits (Homo sapiens, UniProt P47869+Q99928). Put plainly: Radioligand competition binding assay with [3H]Ro-15-1788 (Flumazenil).
Protocol: Membranes were prepared from HEK cells expressing hGABA A alpha2beta2-gamma3 receptor, and validated to ascertain protein concentration, receptor expression and to determine the Kd of the flumazenil as well as the Ki of a standard set of compounds before being used to test new compounds.
100 ul of radioligand and 100 ul of membrane in 50 mM Tris-HCl and 0.05% F127 with 1 ul of test compound was incubated for 2 hours to allow the reaction to achieve equilibrium, and then harvested onto filter plates, dried and counted on a TopCount NXT. The data was analysed, and the Ki values were presented as the geometric mean of at least two replicates.
In assay [2] the target is GABRA2-GABRB2-GABRG2 chloride currents in HEK cells (Homo sapiens (Human), UniProt P18507+P47869). Put plainly: QPatch whole-cell patch-clamp electrophysiology, enhancement of GABA current (α2). It counts as cell-based. To be noted: −60 mV, approximately EC10 GABA. On the procedure: Human Embryonic Kidney (HEK) cells were transfected with a GABRA2-GABRB2-GABRG2 construct using standard techniques.
Chain of GABRA2-GABRB2-GABRG2 chloride currents in HEK cells (P47869 29-451): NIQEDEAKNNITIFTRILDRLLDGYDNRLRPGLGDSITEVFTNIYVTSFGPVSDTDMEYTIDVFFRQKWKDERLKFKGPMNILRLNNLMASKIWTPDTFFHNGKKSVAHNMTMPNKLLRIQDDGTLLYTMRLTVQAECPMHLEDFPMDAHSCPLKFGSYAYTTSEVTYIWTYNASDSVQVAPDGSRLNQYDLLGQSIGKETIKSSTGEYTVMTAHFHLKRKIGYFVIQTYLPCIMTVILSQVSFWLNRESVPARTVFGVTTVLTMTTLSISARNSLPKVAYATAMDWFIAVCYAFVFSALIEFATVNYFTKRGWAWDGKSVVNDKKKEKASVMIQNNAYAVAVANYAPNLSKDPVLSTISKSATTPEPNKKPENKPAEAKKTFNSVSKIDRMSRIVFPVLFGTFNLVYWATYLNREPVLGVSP
Chain of GABRA2-GABRB2-GABRG2 chloride currents in HEK cells (P47870 26-512 partner): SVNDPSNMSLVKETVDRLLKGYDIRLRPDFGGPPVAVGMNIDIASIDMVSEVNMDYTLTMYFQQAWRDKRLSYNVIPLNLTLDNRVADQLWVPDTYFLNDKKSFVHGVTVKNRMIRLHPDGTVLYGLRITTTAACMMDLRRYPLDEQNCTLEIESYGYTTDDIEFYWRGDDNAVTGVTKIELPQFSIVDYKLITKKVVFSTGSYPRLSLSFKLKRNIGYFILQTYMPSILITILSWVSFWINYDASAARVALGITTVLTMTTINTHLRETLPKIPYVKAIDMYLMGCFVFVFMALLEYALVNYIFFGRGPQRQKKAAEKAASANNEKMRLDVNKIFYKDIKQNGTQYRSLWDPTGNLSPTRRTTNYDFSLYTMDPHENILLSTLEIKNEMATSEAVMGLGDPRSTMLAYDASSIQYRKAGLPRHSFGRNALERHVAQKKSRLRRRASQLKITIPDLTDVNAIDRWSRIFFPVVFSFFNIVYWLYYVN
Chain of GABRA2-GABRB2-GABRG2 chloride currents in HEK cells (P18507 40-475): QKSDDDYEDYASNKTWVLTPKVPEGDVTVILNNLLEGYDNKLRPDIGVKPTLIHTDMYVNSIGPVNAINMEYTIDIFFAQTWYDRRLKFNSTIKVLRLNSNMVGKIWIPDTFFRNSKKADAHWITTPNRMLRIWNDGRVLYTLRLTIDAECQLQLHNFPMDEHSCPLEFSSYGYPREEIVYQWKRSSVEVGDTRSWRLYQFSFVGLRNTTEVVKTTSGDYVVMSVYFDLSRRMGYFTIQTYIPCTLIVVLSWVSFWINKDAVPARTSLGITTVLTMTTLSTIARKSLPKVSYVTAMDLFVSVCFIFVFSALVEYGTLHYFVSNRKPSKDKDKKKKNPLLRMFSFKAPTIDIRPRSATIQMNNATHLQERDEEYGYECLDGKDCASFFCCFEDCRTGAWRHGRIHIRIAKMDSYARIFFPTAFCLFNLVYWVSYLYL
For QPatch electrophysiology testing, cells were harvested from flasks by enzymatic dissociation and resuspended in serum-free medium. Cells were typically used for electrophysiological experiments within 24 to 72 hours after splitting.
(§1) Cell suspension containing HEK cells expressing GABRA2-GABRB2-GABRG2 was placed on the QPatch instrument in serum-free medium into the instrument's cell stirrer. […] All recordings were made at room temperature (22-24° C.).
(§2) Current records were acquired at 1 KHz and filtered at 0.3 KHz using the Bessel filter. Series resistance compensation was set to 80% in the QPatch software.
(§3) All compounds were dissolved in dimethyl sulfoxide to make 30 mM or 10 mM stock solutions, which were then diluted to 1000 times the desired final concentration in dimethyl sulfoxide. These were diluted into extracellular solution to attain the final concentrations desired. […] This concentration of dimethyl sulfoxide was present in all samples.
(§4) Currents were recorded at −60 mV, using an approximately EC10 concentration of gamma-aminobutyric acid (GABA).
(§5) Compound effect (% enhancement of gamma-aminobutyric acid current) was calculated using the following formula: [((peak modulator current amplitude−leak)−(GABA current amplitude−leak))/(GABA current amplitude−leak)]*100, where ‘leak’ is leak current at −60 mV, ‘peak modulator current amplitude’ is the current elicited by co-application of gamma-aminobutyric acid and test compound, and ‘GABA current amplitude’ is the current elicited by application of gamma-aminobutyric acid alone.

Assay [3] has as its target GABA channels expressing the α1 subunit (GABRA1-GABRB3-GABRG2) in HEK cells (Homo sapiens (Human), UniProt P14867+P18507). Put plainly: QPatch whole-cell patch-clamp electrophysiology, enhancement of GABA current (α1). The settings on record: −60 mV, approximately EC10 GABA. It counts as cell-based. As for the experimental part: as §1, §2, §3, §4, §5
The ability of the compounds of the formula (I) to modulate the GABA channels expressing the α1 subunit (or GABRA1) can also be measured using an assay analogous to that described above but replacing the GABRA2-GABRB2-GABRG2 gene construct with the GABRA1-GABRB3-GABRG2 gene construct. All other conditions remain the same including the same cell line and conditions for cell growth.

The mark [4] stands for this setting: read-out: GABA-α2 Ki, hGABA A alpha2beta2gamma3 membranes from HEK cells, geometric mean of at least two replicates.

Counter-ions that a name gives are not always drawn. Like-named read-outs stand apart in the source and are kept apart here.

Chain of GABA channels expressing the α1 subunit (GABRA1-GABRB3-GABRG2) in HEK cells (P14867 28-456): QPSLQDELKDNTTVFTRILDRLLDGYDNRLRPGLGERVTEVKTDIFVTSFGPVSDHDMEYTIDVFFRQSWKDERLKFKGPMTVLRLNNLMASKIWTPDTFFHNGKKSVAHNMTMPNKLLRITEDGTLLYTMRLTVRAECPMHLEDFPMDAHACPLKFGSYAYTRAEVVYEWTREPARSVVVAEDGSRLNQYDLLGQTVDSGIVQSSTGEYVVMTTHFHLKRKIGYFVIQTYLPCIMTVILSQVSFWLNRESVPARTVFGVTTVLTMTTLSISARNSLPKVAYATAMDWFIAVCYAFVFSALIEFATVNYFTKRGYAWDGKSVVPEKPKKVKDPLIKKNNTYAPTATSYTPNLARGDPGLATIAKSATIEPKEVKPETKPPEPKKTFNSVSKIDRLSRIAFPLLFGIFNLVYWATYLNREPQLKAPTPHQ
Chain of GABA channels expressing the α1 subunit (GABRA1-GABRB3-GABRG2) in HEK cells (P28472 26-473 partner): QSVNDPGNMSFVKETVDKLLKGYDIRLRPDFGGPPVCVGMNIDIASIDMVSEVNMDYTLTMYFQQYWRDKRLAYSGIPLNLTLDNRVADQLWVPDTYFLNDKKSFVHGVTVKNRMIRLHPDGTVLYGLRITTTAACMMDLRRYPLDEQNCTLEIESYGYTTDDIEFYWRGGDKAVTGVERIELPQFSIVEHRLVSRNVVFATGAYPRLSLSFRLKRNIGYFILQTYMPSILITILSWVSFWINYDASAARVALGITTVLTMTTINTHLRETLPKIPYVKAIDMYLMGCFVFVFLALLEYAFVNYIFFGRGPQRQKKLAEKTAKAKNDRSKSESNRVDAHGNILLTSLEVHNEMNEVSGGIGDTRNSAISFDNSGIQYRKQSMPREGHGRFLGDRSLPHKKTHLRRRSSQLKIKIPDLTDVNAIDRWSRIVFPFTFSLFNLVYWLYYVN
Chain of GABA channels expressing the α1 subunit (GABRA1-GABRB3-GABRG2) in HEK cells (P18507 40-475): as the sequence (P18507 40-475) above

Consider `CC(C)n1cnc2c(-c3ccc(F)c(-c4ccc5c(c4)CN(C)C5=O)c3)cnnc21` [Example 2, 5-{2-Fluoro-5-[7-(propan-2-yl)-7H-imidazo[4,5-c]pyridazin-4-yl]phenyl}-2-methyl-2,3-dihydro-1H-isoindol-1-one], for which the Ki in assay [1] (setting [4]) stood at 6.4 nM. In addition, the “α2 PAM (% enhancement of gamma-aminobutyric acid current)” value in assay [2] is on record as 106%. The “α1 PAM (% enhancement of gamma-aminobutyric acid current)” value in assay [3] turned out to be 12%.
For the compound `CCn1cnc2c(-c3ccc(F)c(-c4ccc5c(c4)C(=O)NC5)c3)cnnc21` [Example 6, 6-[5-(7-Ethyl-7H-imidazo[4,5-c]pyridazin-4-yl)-2-fluorophenyl]-2,3-dihydro-1H-isoindol-1-one], the Ki in assay [1] (setting [4]) was found to be 81.8 nM. For the same compound, the “α2 PAM (% enhancement of gamma-aminobutyric acid current)” value in assay [2] came to 10%. The “α1 PAM (% enhancement of gamma-aminobutyric acid current)” value in assay [3] is −61%.
With `CCn1cnc2c(-c3ccc(F)c(-c4cc(C(=O)N(C)C)ccc4F)c3)cnnc21` [Example 7, 5′-(7-Ethyl-7H-imidazo[4,5-c]pyridazin-4-yl)-2′,6-difluoro-N,N-dimethylbiphenyl-3-carboxamide], the Ki in assay [1] (setting [4]) worked out at 30.9 nM. In addition, the “α2 PAM (% enhancement of gamma-aminobutyric acid current)” value in assay [2] is listed as 47%.
Take `CNC(=O)c1ccc(F)c(-c2cc(-c3cnnc4c3ncn4C3CC3)ccc2F)c1` [Example 8, 5′-(7-Cyclopropyl-7H-imidazo[4,5-c]pyridazin-4-yl)-2′,6-difluoro-N-methyl-biphenyl-3-carboxamide]: the Ki in assay [1] (setting [4]) was 29 nM.
As for `CN1Cc2cc(-c3cc(-c4cnnc5c4ncn5C4CC4)ccc3F)ccc2C1=O` [Example 10, 5-[5-(7-Cyclopropyl-7H-imidazo[4,5-c]pyridazin-4-yl)-2-fluorophenyl]-2-methyl-2,3-dihydro-1H-isoindol-1-one], the Ki in assay [1] (setting [4]) was 54.7 nM. For the same compound, in assay [2], the “α2 PAM (% enhancement of gamma-aminobutyric acid current)” value was determined as 36%. Besides, the “α1 PAM (% enhancement of gamma-aminobutyric acid current)” value in assay [3] is reported as −12%.
For the compound `CNC(=O)c1ccc(-c2cc(-c3cnnc4c3ncn4C3CC3)ccc2F)cc1` [Example 11, 5′-(7-Cyclopropyl-7H-imidazo[4,5-c]pyridazin-4-yl)-2′-fluoro-N-methylbiphenyl-4-carboxamide], in assay [1] (setting [4]), the Ki amounted to 20.5 nM. Moreover, in assay [2], the “α2 PAM (% enhancement of gamma-aminobutyric acid current)” value is given as 60%.
The matching figures for `CC(C)n1cnc2c(-c3ccc(F)c(-c4ccc(C(N)=O)cc4)c3)cnnc21` [Example 12, 2′-Fluoro-5′-[7-(propan-2-yl)-7H-imidazo[4,5-c]pyridazin-4-yl]biphenyl-4-carboxamide]: 10.7 nM and 48%.
As to `CCn1cnc2c(-c3ccc(F)c(-c4ccc(C(N)=O)cc4)c3)cnnc21` [Example 14, 5′-(7-Ethyl-7H-imidazo[4,5-c]pyridazin-4-yl)-2′-fluorobiphenyl-4-carboxamide], in assay [1] (setting [4]), the Ki came to 7.5 nM. Moreover, the “α2 PAM (% enhancement of gamma-aminobutyric acid current)” value in assay [2] turned out to be 11%. Moreover, in assay [3], the “α1 PAM (% enhancement of gamma-aminobutyric acid current)” value was −55%.
With `CCn1cnc2c(-c3ccc(F)c(-c4cccc(C(N)=O)c4)c3)cnnc21.O=C(O)C(F)(F)F` [Example 15, 5′-(7-Ethyl-7H-imidazo[4,5-c]pyridazin-4-yl)-2′-fluorobiphenyl-3-carboxamide trifluoroacetate salt], the inhibition constant Ki in assay [1] (setting [4]) was determined as 20.3 nM. Further, in assay [2], the “α2 PAM (% enhancement of gamma-aminobutyric acid current)” value is given as 40%. Moreover, in assay [3], the “α1 PAM (% enhancement of gamma-aminobutyric acid current)” value is reported as −34%.
Consider `CCn1cnc2c(-c3ccc(F)c(-c4ccc(C(=O)N(C)C)c(F)c4)c3)cnnc21` [Example 17, 5′-(7-Ethyl-7H-imidazo[4,5-c]pyridazin-4-yl)-2′,3-difluoro-N,N-dimethylbiphenyl-4-carboxamide trifluoroacetate salt], for which the inhibition constant Ki in assay [1] (setting [4]) amounted to 52.8 nM.
The same measure, in the same setting: with `CCn1cnc2c(-c3ccc(F)c(-c4ccc(C(=O)NC(C)C)cc4)c3)cnnc21` [Example 18, 5′-(7-Ethyl-7H-imidazo[4,5-c]pyridazin-4-yl)-2′-fluoro-N-(propan-2-yl)biphenyl-4-carboxamide trifluoroacetate salt] the figure was 19.3 nM.
Regarding `CCn1cnc2c(-c3ccc(F)c(-c4cc(F)cc(C(=O)NC)c4)c3)cnnc21.O=C(O)C(F)(F)F` [Example 19, 5′-(7-Ethyl-7H-imidazo[4,5-c]pyridazin-4-yl)-2′,5-difluoro-N-methylbiphenyl-3-carboxamide trifluoroacetate salt], in assay [1] (setting [4]), the Ki worked out at 51 nM. Also, the “α2 PAM (% enhancement of gamma-aminobutyric acid current)” value in assay [2] was found to be 66%. Besides, the “α1 PAM (% enhancement of gamma-aminobutyric acid current)” value in assay [3] came to 14%.
On to `CCn1cnc2c(-c3cccc(-c4ccc(C(=O)N(C)C)cc4)c3)cnnc21` [Example 20, 5′-(7-Ethyl-7H-imidazo[4,5-c]pyridazin-4-yl)-N,N-dimethyl-biphenyl-4-carboxamide trifluoroacetate salt], for which the Ki in assay [1] (setting [4]) was 224 nM.
With `CCn1cnc2c(-c3ccc(F)c(-c4ccc(C(=O)NC)cc4OC)c3)cnnc21` [Example 21, 5′-(7-Ethyl-7H-imidazo[4,5-c]pyridazin-4-yl)-2′-fluoro-2-methoxy-N-methylbiphenyl-4-carboxamide], the Ki in assay [1] stood at 6.3 nM. Further, the “α2 PAM (% enhancement of gamma-aminobutyric acid current)” value in assay [2] is listed as 33%. The “α1 PAM (% enhancement of gamma-aminobutyric acid current)” value in assay [3] is recorded as −29%.
Consider `CCn1cnc2c(-c3ccc(F)c(-c4ccc(C(=O)N(C)C)cc4OC)c3)cnnc21` [Example 22, 5′-(7-Ethyl-7H-imidazo[4,5-c]pyridazin-4-yl)-2′-fluoro-2-methoxy-N,N-dimethylbiphenyl-4-carboxamide], for which the Ki in assay [1] was 81.2 nM. Besides, in assay [2], the “α2 PAM (% enhancement of gamma-aminobutyric acid current)” value was 23%. In assay [3], the “α1 PAM (% enhancement of gamma-aminobutyric acid current)” value is recorded as −1%.
As for `CCn1cnc2c(-c3ccc(F)c(-c4cc(C(=O)N(C)C)ccc4OC)c3)cnnc21` [Example 23, 5′-(7-Ethyl-7H-imidazo[4,5-c]pyridazin-4-yl)-2′-fluoro-6-methoxy-N,N-dimethylbiphenyl-3-carboxamide], in assay [1] (setting [4]), the Ki is 340 nM.
